Patent US10646521B2, “Microbiota composition, as a marker of responsiveness to chemotherapy, and use of microbial modulators (pre-, pro- or synbiotics) for improving the efficacy of a cancer treatment” (INSTITUT GUSTAVE ROUSSY, priority 2013, dated 2020)
Entries after “also recorded” stand apart in the source; their conditions may differ. Structures can show the parent of a compound that is named as a salt.

Experiments:
splenic pTh17 cells = assay: Flow cytometry of splenic pTh17 / TH1 / Tc1 cells; details: for CTX-mediated pTH17 in the spleen: WT animals treated with NOD agonists
Experimental: For cross-linking experiment, 2×10^5 total splenocytes per well (after red cell lysis) were incubated in MaxiSorp plates (Nunc) precoated with anti-CD3ε mAb (145-2C11) (0.5 μg per well; eBioscience) and/or anti-CD28 mAb (37.51) (2 μg/ml; BD). The supernatants were assayed at 48 h by ELISA for mouse IL-17A (eBioscience) and IFNγ (BD). […] For intracellular, cells were incubated for 4 h at 37° C. with 50 ng/ml of PMA, 1 μg/ml of ionomycin and BD Golgi STOP™. After membrane staining, cells were stained with anti-IL-17A, IFNγ, T-bet and RORγt using eBioscience FoxP3/Transcription factor staining buffer set.

lipocalin-2 = assay: ELISA monitoring of lipocalin-2 in feces; assay type: in vivo, mice; details: WT animals treated with NOD agonists
Experimental: A. Enumeration of bacterial colonies in splenocytes 48 hrs post-CTX therapy in various mouse backgrounds. Splenic cells (left panel) and mesenteric LN (middle panel) harvested from C57BL/6 WT or NOD1^−/−×NOD2^−/− mice were cultured in anaerobic conditions for 48 hours. Bacterial outgrowth was enumerated (number of colonies/plate and frequencies of positive plates/animal (right panel)) and eventually characterized by mass spectrometry for bacterial identification. B. Flow cytometric analyses of pTH17 cells. CD4^+ T cells co-expressing IFN[…]γ in the gate of live IL-17+ T splenocytes in WT versus NOD1 or NOD2 deficient mice C. Idem as in B. but experiment performed in WT animals treated with NOD agonists (MDP and TriDAP) according to the experimental setting aligned in the upper part of the graph. D. ELISA monitoring of lipocalin-2 in the feces of mice according to the experimental setting aligned in C. A representative experiment is shown for A and D. Concatenated data from 2-3 individual experiments including 3 mice/group are depicted in B-C. Anova statistical analyses: *p<0.05, **p<0.01, ***p<0.001.

splenocytes = assay: TCR cross-linking of splenocytes, IL-17 and IFNγ ELISA; assay type: in vivo, mice
[1] = tested on: small intestine epithelium; details: mouse, in vivo
Experimental: The whole small intestine (duodenum, jejunum and ileum) was removed, cleaned from fecal content and fixed in 4% of PFA for 1 h. Re-hydration of the tissue was performed in 15% sucrose for 1 h and in 30% sucrose overnight. Depending on the experiment, the small intestine was entirely rolled, or cut into small pieces, then embedded in optimum cutting temperature (OCT) compound (Sakura), snap frozen and longitudinal or transversal […] were prepared.
For histological analyses, the longitudinal sections were counterstained with hematoxilin and eosin. For the histological quantitative analyses, inflammatory foci, altered villi and the thickness of lamina propria were scored for each section, while the number of goblet cells was counted for each villus. […] Then, a rabbit polyclonal antibody against the lysozyme protein (1:500 for 1 h, Thermo Scientific) and ALEXA FLUOR 488 Fragment of goat anti-rabbit IgG (1:300 for 1 h, Molecular Probes) were used. All steps were performed at room temperature. Lysozyme-positive areas were quantified on mosaic images using the Histolab software (Microvision Instruments). The quantification of Paneth cells was performed measuring the average area of the Lysozyme-positive clusters (group of Paneth cells) as well as the emission/μm^2 of those clusters (not shown).

commensal bacteria = assay type: in vivo, mice; details: 48 h after treatment
Experimental: Mesenteric lymph nodes and spleens were aseptically removed, smashed in PBS and plated onto COS agar plates (BioMérieux), for aerobic and anaerobic growth. After 48 h of culture, single colonies were isolated and stocked in glycerol at −80° C.
(§1) Serial dilutions of feces from naïve mice or tumor bearers treated with NaCl or CTX, vancomycin or broad spectrum antibiotics (ATB) (ampicillin+streptomycin+colistin), were plated onto COS agar plates and after 48 h, single colonies were isolated and Gram staining was performed. The identification of specific bacteria was accomplished through the combination of morphological tests and the analysis through VITEK® automated system (BioMérieux, France) and verified in mass spectrometry (MALDI-TOF, see below) performed at Pasteur Institute, Paris, France.

MCA205 sarcomas = assay type: in vivo, C57BL/6 mice
MC38-OVAdim tumor cells = assay: OVA vaccine + CTX, rechallenge with MC38-OVAdim tumor cells; assay type: in vivo, C56BL/6 mice; details: antibiotics 20 days, rechallenge at day 50
Experimental: FIG. 38: Anticancer vaccines combined with CTX promote a long lasting anticancer immunity which depends on gut Gram negative bacteria. A. Experimental setting. C56BL/6 mice were treated with broad spectrum ATB (ampicilline, colistine, streptomycine) or vancomycine (which only kills Gram+ bacteria) or colistine (which only kills Gram− bacteria) for 9 days, received one ip, injection of CTX (100 mg/kg), followed 3 days later by vaccination with OVA protein in CpG adjuvants (or mock vaccines). ATB were stopped after 20 days and animals were left untreated under observation for 1 month. At day 50, all mice were rechallenged with a lethal dose of 10× times the MTD of MC38-OVA^dim tumor cells sc. B. Animals were scored on the basis of tumor outgrowth (featuring no or weak memory T cell response). The percentages of tumor-free mice was recorded for 2 experiments comprising 5 mice/group.*Anova test: p<0.05.

[2] = tested on: tumor-infiltrating lymphocytes; assay: Flow cytometry of tumor-infiltrating lymphocytes; assay type: in vivo, mice
lung adenocarcinoma = assay: Lung adenocarcinoma-bearing KP mice treated with chemotherapy
Experimental: Mice were either left untreated or received chemotherapy (d84, d91 and d98) in absence or presence of 0.25 mg/ml vancomycin (mixed into drinking water starting on d77 and until the end of the experiment; antibiotic-containing water was replaced biweekly). Tumor volumes were quantified on d73 and 100 (equivalent of ‘pre’ and ‘post’ chemotherapy) in anesthetized mice by noninvasive imaging as described before (Cortez-Retamozo et al., 2013).

fecal commensal bacteria = assay: Culture of fecal commensals under antibiotics; assay type: in vivo, mice; details: antibiotic in drinking water, tumor bearers
Experimental: Mice were treated with antibiotics 2-3 weeks before tumor implantation and continued until the end of the experiment. A mix of ampicillin (1 mg/ml)+streptomycin (5 mg/ml)+colistin (1 mg/ml) (Sigma-Aldrich) or vancomycin (0.25 mg/ml) or colistin alone (2·10^3 U/ml) were added in sterile drinking water. Solutions and bottles were changed 2-3 times a week.
as §1

CC(=O)N[C@H]1C(O)O[C@H](CO)[C@@H](O)[C@@H]1O[C@H](C)C(=O)N[C@@H](C)C(=O)N[C@H](CCC(=O)O)C(N)=O (mixture of isomers) [myramyl dipeptide]
CTX-mediated pTH17 in the spleen (splenic pTh17 cells): reducing | release of the antimicrobial peptide lipocalin-2 in stools (lipocalin-2): promoting the release

C[C@H](N)C(=O)N[C@H](CCC(=O)NC(CCCC(N)C(=O)O)C(=O)O)C(=O)O (some centres unmarked) [TriDAP]
CTX-mediated pTH17 in the spleen (splenic pTh17 cells): reducing | release of the antimicrobial peptide lipocalin-2 in stools (lipocalin-2): promoting the release

COc1cccc2c1C(=O)c1c(O)c3c(c(O)c1C2=O)C[C@@](O)(C(=O)CO)C[C@@H]3O[C@H]1C[C@H](N)[C@H](O)[C@H](C)O1 [doxorubicin, Doxorubicin hydrochloride]
induction of pTh17 cells in the spleen (splenic pTh17 cells; Doxo i.p., splenocytes 7 days later): failed to induce pTh17 cells in the spleen | polarization of splenic CD4+ T cells towards Th1 and Th17 pattern (splenocytes; day 7 after treatment): not found | inflammatory status of the gut epithelial barrier (histology) [1]: shortening of small intestinal villi, discontinuities of the epithelial barrier, interstitial edema and focal accumulation of mononuclear cells in the lamina propria | translocation of commensal bacteria into mesenteric lymph nodes and spleens, compared with CTX (commensal bacteria): less so | dependence of tumor growth reduction on gut commensals (MCA205 sarcomas; SPF, ATB-treated and germ-free mice): does not require gut commensals for reducing tumor growth

CN[C@H](CC(C)C)C(=O)N[C@H]1C(=O)N[C@@H](CC(N)=O)C(=O)N[C@H]2C(=O)N[C@H]3C(=O)N[C@H](C(=O)N[C@H](C(=O)O)c4cc(O)cc(O)c4-c4cc3ccc4O)[C@H](O)c3ccc(c(Cl)c3)Oc3cc2cc(c3O[C@@H]2O[C@H](CO)[C@@H](O)[C@H](O)[C@H]2O[C@H]2C[C@](C)(N)[C@H](O)[C@H](C)O2)Oc2ccc(cc2Cl)[C@H]1O [vancomycin]
effect on CTX-induced accumulation/differentiation of pTh17 in the spleen (splenic pTh17 cells; MCA205 tumor bearers, 7 days after CTX): prevented; also recorded: blunts | effect on CTX-induced Th17 conversion (splenocytes; antibiotic in drinking water): reduced | effect on long term protection of an OVA-based cancer vaccine + CTX against lethal challenge (MC38-OVAdim tumor cells): did not prevent | frequencies of tumor-infiltrating CD3+ T cells and Th1 cells ([2]; MCA205 tumors, 8 days post-CTX): reduced | γδT17 cells in tumor beds post-therapy ([2]; chemotherapy-treated tumors): devoid | intratumoral CD8+ T effector/Foxp3+ regulatory T cell ratio (lung adenocarcinoma; Chemo+Vanco): reduced | effect on the anticancer efficacy of CTX-based chemotherapy (lung adenocarcinoma; vancomycin 0.25 mg/ml in drinking water, oxaliplatin plus CTX): inhibitory role; also recorded: compromised | effect on the anti-tumor efficacy of CTX against MCA205 sarcoma (MCA205 sarcomas; 3 week conditioning with antibiotic): compromised; also recorded: reduced | repertoire of commensal bacteria in feces (fecal commensal bacteria): biased the repertoire of commensal bacteria towards distinct commensal species

colistin
effect on long term protection of an OVA-based cancer vaccine + CTX against lethal challenge (MC38-OVAdim tumor cells): did | repertoire of commensal bacteria in feces (fecal commensal bacteria): promoted the outgrowth of E. faecalis
